For six compounds, IC50 results are on record in patent publication US6365606B1, “6,5-fused aromatic ring systems having enhanced phosphodiesterase IV inhibitory activity” (Euro-Celtique, S.A., priority 1996, dated 2002).

By IC50 is commonly meant the concentration at which inhibition is half-maximal.

Holding throughout (type): biochemical
The subject of test [1] is Type IV PDE isolated from bovine tracheal smooth muscle. The experiment in a line: Type IV PDE activity, hydrolysis of [3H]-cyclic AMP. Particulars: bovine tracheal smooth muscle enzyme; 0.2 μM cyclic AMP. As to the method: The Type IV PDE is isolated from bovine tracheal smooth muscle using a procedure similar to that previously described by Silver, P. J., et al.: Eur. J. Pharmacol. 150:85, 1988.(1). Eiiefly, smooth muscle from bovine trachea is minced and homogenized using a polytron in 10 volumes of an extraction buffer containing 10 mM Tris-acetate (pH 7.5), 2 mM magnesium chloride, 1 mM dithiothreitol and 2,000 units/ml of aprotinin. This and all subsequent procedures are performed at 0-4EC. The homogenate is sonicated and then centrifuged at 48,000×g for 30 minutes. The resulting supernatant is applied to a DEAE Trisacryl M column previously equilibrated with sodium acetate and dithiothreitol. After applications of the sample, the column is washed with sodium acetate/dithiothreitol, after which the different forms of PDE are eluted from the column using a linear Tris-HCl/NaCl gradient. Fractions containing Type IV PDE are collected, dialyzed and concentrated to 14% of the original volume. The concentrated fractions are diluted to 50% with ethylene glycol and stored at −20EC.
Enzyme activity is assessed by measuring the hydrolysis of [^3H]-cyclic AMP, as described by Thompson, W. J., et al.: Adv. Cyclic Nucleotide Res. 10:69, 1979. The cyclic AMP concentration used in this assay is 0.2 μM, which approximates to the Km value. Protein concentration is adjusted to ensure that no more than 15% of the available substrate is hydrolyzed during the incubation period.
All test compounds are dissolved in dimethyl sulfoxide (final concentration of 2.5%). This concentration of dimethyl sulfoxide inhibits enzyme activity by approximately 10%.
The compounds are tested over concentration range: 0.1, 1, 10, 100 uM (n=1), and IC50 determinations are made using 5 appropriate concentrations (n=2).

Test [2] deals with T1, Type V PDE isolated from platelets (Homo sapiens, UniProt O76074).
T1 construct: Fractions that contain PDE V are pooled and dialyzed overnight; from tissue; host or cells: platelets (supernatant, DEAE-Trisacryl M fraction)
The experiment in a line: Type V PDE activity, hydrolysis of [3H]-cyclic GMP. Particulars: platelet enzyme; 0.2 uM cyclic GMP. The procedure:
Briefly, 1-2 units of platelets are suspended in an equal volume of buffer A (20 mM Tris-HCl, pH 7.5, containing 2 mM magnesium acetate, 1 mM dithiothreitol, and 5 mM Na2EDTA) using a polytron. The proteinase inhibitor phenylmethylsulfonyl fluoride (PMSF) are also included in this buffer at a final concentration of 200 uM. […] The homogenate is then centrifuged at 100,000 rpm for 60 minutes. The supernatant is then removed and filtered through four layers of gauze and applied to a DEAE-Trisacryl M column. The column is washed with several bed volumes of buffer B (20 mM Tris-HCl, pH 7.5, containing 2 mM magnesium acetate, 1 mM diothiothreitol, and […] PMSF) and eluted by two successive linear NaCl gradients (0.05-0.15 M, 300 ml total; 0.15-0.40 M, 200 ml total). Five ml fractions are collected and assayed for cyclic AMP and cyclic GMP PDE activity. Fractions that contain PDE V are pooled and dialyzed overnight against 4 L of buffer C (20 mM Tris-HCl, pH 7.5, containing 2 mM magnesium acetate and proteinase inhibitors). […] PDE V can typically be retained for up to four weeks with little or no loss of activity.
The reference Type V PDE inhibitor zaprinast is evaluated with each assay.

Test [3] concerns the target T2, Type III PDE isolated from human platelets (Homo sapiens, UniProt Q14432).
T2 construct: Fractions containing PDE III activity are pooled and dialyzed; from tissue; host or cells: human platelets (100,000 x g supernatant, DEAE-Trisacryl M fraction)
As to the kind of experiment: Type III PDE activity, hydrolysis of [3H]-cyclic AMP. To be noted: human platelet enzyme; 0.2 μM cyclic AMP. The procedure:
After application of the sample, the column is washed with several bed volumes of buffer B, after which the different forms of PDE are eluted from the column using two successive linear NaCl gradients (0.05-0.15 M, 300 ml total; 0.15-0.40 M, 200 ml total). Five milliliter fractions are collected and assayed for cyclic AMP and cyclic GMP PDE activity.

T2 sequence (Q14432 whole entry): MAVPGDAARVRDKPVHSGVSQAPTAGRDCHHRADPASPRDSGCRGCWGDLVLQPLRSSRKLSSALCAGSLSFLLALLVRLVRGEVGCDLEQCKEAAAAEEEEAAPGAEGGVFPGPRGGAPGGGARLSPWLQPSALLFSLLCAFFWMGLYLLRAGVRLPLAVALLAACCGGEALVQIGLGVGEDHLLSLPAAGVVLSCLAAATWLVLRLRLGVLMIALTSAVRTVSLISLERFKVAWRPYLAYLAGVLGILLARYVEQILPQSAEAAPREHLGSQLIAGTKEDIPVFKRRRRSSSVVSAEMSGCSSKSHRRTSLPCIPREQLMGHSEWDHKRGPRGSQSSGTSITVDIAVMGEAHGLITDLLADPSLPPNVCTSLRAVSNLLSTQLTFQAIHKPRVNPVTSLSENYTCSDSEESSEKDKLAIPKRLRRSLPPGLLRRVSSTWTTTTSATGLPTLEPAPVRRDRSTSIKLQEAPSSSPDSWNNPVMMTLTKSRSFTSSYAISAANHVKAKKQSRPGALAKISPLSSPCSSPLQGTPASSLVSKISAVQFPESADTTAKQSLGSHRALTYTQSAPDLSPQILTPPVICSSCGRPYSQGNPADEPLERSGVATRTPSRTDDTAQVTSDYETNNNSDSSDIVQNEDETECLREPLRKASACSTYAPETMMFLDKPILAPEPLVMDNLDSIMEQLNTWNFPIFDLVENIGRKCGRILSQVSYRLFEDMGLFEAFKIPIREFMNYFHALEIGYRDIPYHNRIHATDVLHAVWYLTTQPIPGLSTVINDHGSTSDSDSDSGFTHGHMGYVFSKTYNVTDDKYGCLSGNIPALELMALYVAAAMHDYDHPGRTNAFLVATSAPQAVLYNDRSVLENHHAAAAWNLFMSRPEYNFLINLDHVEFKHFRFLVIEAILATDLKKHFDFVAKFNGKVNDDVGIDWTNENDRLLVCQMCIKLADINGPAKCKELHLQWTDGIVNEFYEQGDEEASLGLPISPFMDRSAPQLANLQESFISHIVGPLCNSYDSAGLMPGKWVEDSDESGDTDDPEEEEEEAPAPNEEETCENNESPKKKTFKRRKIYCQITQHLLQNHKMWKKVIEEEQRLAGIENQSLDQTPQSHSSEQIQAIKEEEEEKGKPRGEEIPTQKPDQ

`CC(C)(C)c1cc(Cc2nc3cc(Cl)cc(C#Cc4ccccn4)c3o2)cc(C(C)(C)C)c1O` [Example 1, 5-chloro-2-(3,5-di-t-butyl-4-hydroxy-benzyl)-7-(2-(2-pyridyl)-ethynyl)-benzoxazole]: the midpoint of inhibition in test [1], the IC50, lay at 0.013 µM.

With `CC(C)(C)c1cc(Cc2nc3cccc(C#Cc4ccccn4)c3o2)cc(C(C)(C)C)c1O` [Example 2], the concentration for half-maximal inhibition (IC50) in test [1] amounted to 0.7 µM.

Compound `CC(C)(C)c1cc(Cc2nc3cc(Cl)cc(C#Cc4nccs4)c3o2)cc(C(C)(C)C)c1O` [Example 3, 5-chloro-2-(3,5-di-t-butyl-4-hydroxy-benzyl)-7-(2-(2-thiazolyl)-ethynyl)-benzoxazole] displayed an IC50 in test [1] of 0.014 µM.

For the compound `CC(C)(C)c1cc(Cc2nc3cc(Cl)cc(C#CCO)c3o2)cc(C(C)(C)C)c1O` [Example 4, 3-(5-chloro-2-(4-hydroxy-3,5-bis((1,1-dimethyl)ethyl)benzyl)benzoxazol-7-yl)prop-2-yn-1-ol], the IC50 was 19.5 µM in test [2], 0.42 µM in test [1] and > 300 µM in test [3]. `COc1ccc(C2CNC(=O)C2)cc1OC1CCCC1` (centres unmarked) [Rolipram, reference compound] returned an IC50 in test [1] of 3.7 µM. For `Cn1c(=O)c2[nH]cnc2n(C)c1=O` [Theophylline, reference compound], in test [1], the IC50 turned out to be 321 µM.
